The values below come from ChEMBL document CHEMBL1123536, “Studies on Ca2+ channel antagonists. 5-[(3,4-Dimethoxyphenethyl)methylamino]-2-(3,4-dimethoxyphenyl)-2- isopropylpentyl isothiocyanate, a chemoaffinity ligand derived from verapamil” (J Med Chem, 1986).

For assay [1], the species on record is Rattus norvegicus. The assay can be described thus: Compound was evaluated for the displacement of [3H]gallopamil from specific binding sites on rat myocardial membrane particulates. To be noted: Myocardium. (In general: In a radioligand displacement assay an active substance lowers the binding of a labelled ligand.)
The species named for assay [2] is Rattus norvegicus. The assay can be described thus: Compound was evaluated for the concentration dependent negative ionotropic effect in rat right myocardial ventricular strips. The class given is functional. The settings on record: Cardiac ventricle.

On to `COc1ccc(CCN(C)CCCC(CN=C=S)(c2ccc(OC)c(OC)c2)C(C)C)cc1OC` (stereo unspecified), for which, in assay [1], the 50% inhibitory concentration (IC50) is 0.342 µM. The molecule also returned an EC50 in assay [2] of 4.56 µM.

As for `COc1ccc(CCN(C)CCCC(C#N)(c2cc(OC)c(OC)c(OC)c2)C(C)C)cc1OC` (stereo unspecified) [GALLOPAMIL], in assay [1], the IC50 was 0.016 µM. For the same molecule, the midpoint of the response in assay [2], the EC50, lay at 1.95 µM.

Regarding `COc1ccc(CCN(C)CCCC(C#N)(c2ccc(OC)c(OC)c2)C(C)C)cc1OC` (stereo unspecified) [VERAPAMIL], in assay [1], the half-maximal inhibitory concentration (IC50) is 0.362 µM. In assay [2], this molecule displayed an EC50 of 2.51 µM.

One may read the IC50 as the concentration that gives 50% inhibition. Broadly, the EC50 is the midpoint of the concentration-response curve.
